Experimental findings from ChEMBL document CHEMBL4257526, “Identification of an auxiliary druggable pocket in the DNA gyrase ATPase domain using fragment probes” (Medchemcomm, 2018) are described below.

The target in the experiment is DNA gyrase (Escherichia coli, UniProt P0AES4+P0AES6). The experiment can be described thus: Inhibition of full length Escherichia coli DNA gyrase ATPase activity measured for 20 mins by lactate dehydrogenase assay. It counts as protein-complex assay.

Usually IC50 stands for the concentration that gives 50% inhibition. A high value points to weaker potency in that assay. `Oc1ccc(Oc2ccc(C(F)(F)F)cc2Cl)cc1` gave a half-maximal inhibitory concentration (IC50) of 100 µM.
Compound `Oc1ccc(Oc2ccc(Cl)cc2)cc1` registered a 50% inhibitory concentration (IC50) of 270 µM.
`Oc1ccc(Oc2ccc(C(F)(F)F)cc2)cc1` yielded a concentration for half-maximal inhibition (IC50) of 180 µM.
For the compound `Cc1ccc(CCC(=O)O)cc1`, the half-maximal inhibitory concentration (IC50) stood at 120 µM.
The value for `Oc1ccc(Oc2cccc(C(F)(F)F)c2)cc1` was 240 µM; that for `CC(C)(c1ccccc1)c1ccc(O)cc1` was 390 µM.
The value for `Cc1cc(Oc2ccc(Cl)cc2Cl)ccc1O` was 84 µM; that for `Oc1ccc(Oc2ccc(Cl)cc2Cl)cc1` was 120 µM.
With `Oc1ccc(Oc2cccc(Cl)c2)cc1`, the concentration for half-maximal inhibition (IC50) was 320 µM.
